According to patent publication US20260132115A1, “SUBSTITUTED 3-FLUOROBENZENEPROPANOATE COMPOUND AND PREPARATION METHOD THEREFOR, PHARMACEUTICAL COMPOSITION THEREOF, AND USE THEREOF” (TIANJIN GUDUI BIO-PHARM CO., LTD., priority 2022, published 2026):
Like-named read-outs stand apart in the source and are kept apart here.

Columns and labels:
[1] = test system: NUGC-4; experiment: Antitumor potency, MTT method, NUGC-4; format: cell-based; conditions: Homo sapiens, 72 h incubation
Description: (§1) Experimental method: The antitumor potency was tested by the MTT method. Tumor cells at the logarithmic phase were collected. The concentration of the cell suspension was adjusted. 100 μL of the cell suspension was added to each well. Cell plating was carried out and the cell density was adjusted to 1000 to 10000/well (the marginal wells were filled with sterile PBS). The cells were incubated at 5% CO2 and 37° C. until the cells adhered to the wall (96-well flat-bottomed plate). Drugs of different concentration gradients were added, 100 μL per well. Four replicates were set up. Under the conditions of 5% CO2 and 37° C., the cells were incubated for 72 h and observed under an inverted microscope. The prepared MTT solution (5 mg/mL) was added to the 96-well plate, 20 μL per well, mixed well, and incubated for 4 h under the conditions of 37° C. and 5% CO2. Afterwards, the liquid in the plate was discarded. 150 μL of DMSO was added to each well and oscillated for 3 min on a microplate reader. The OD value (optical density) was detected at 490 nm.
(§2) The inhibition rate of the drug against the tumor cell growth was calculated according to the following formula: […]

[2] = test system: λ-Carrageenan-Induced Rat Toe Swelling; experiment: Anti-inflammatory effect on λ-carrageenan-induced rat toe swelling; format: in vivo, SD rats; conditions: Rattus norvegicus, ip, 10 mg/kg intraperitoneal, 1 h before 1% λ-carrageenan
Description: Experimental method: Male SD rats weighing 150-160 g were randomly grouped, with 10 rats in each group. The rats were intraperitoneally injected with saline, the compounds of the present disclosure, and the control drug flurbiprofen or flurbiprofen axetil respectively, all of which were administered at a dose of 10 mg/kg and a dosing volume of 10 μL/g. At 1 h after administration, 100 μL of 1% λ-carrageenan was injected into the right hind toe of each rat to induce inflammation. Afterwards, the paw volume was measured every 1 h using a paw volume meter to calculate the swelling inhibition rate.

[3] = In vivo pharmacokinetic assay in rats (gavage, plasma); conditions: female, Sprague Dawley, po, prototype drug in rat plasma, dose equimolar to 50 mg/kg flurbiprofen; for half-life: read-out: Prototype Drug t1/2 (converted)
Description: Experimental method: Adult female Sprague Dawley rats, aged 8-10 weeks and weighing 200±20 g, were randomly grouped, with 3 rats in each group. Rats in each of the groups were administered by gavage at a dose of 50 mg/kg of flurbiprofen and an equimolar dose of other example compounds to 50 mg/kg of flurbiprofen, respectively. After gavage administration, blood was collected at 0.0833 […], and 24 h into sodium heparin anticoagulant tubes, respectively. The blood was collected by the following method: 250 μL of blood were collected from the orbital venous plexuses of the rats. After blood collection, the blood samples were centrifuged at 12000 rpm in a centrifuge for 5 min. All plasma was aspirated into a 1.5-mL centrifuge tube, and the plasma was stored in a refrigerator at -80° C. The pharmacokinetic parameters were determined by the external standard curve method. Sample processing: after the cryopreserved samples were removed and restored to room temperature, the samples were vortexed evenly and then diluted two folds with methanol; the sample solution was diluted 5 folds by adding a mixed extractant of 0.5% formic acid-containing acetonitrile:methanol=7:3, and subjected to vortex oscillation for 1 min. Subsequently, the resultant was centrifuged at 4° C. and 12000 rpm for 10 min, and then 5 μL of the supernatant was measured for assay. The pharmacokinetic parameters in the Examples were calculated using the Winnonlin software.

[4] = test system: U87; experiment: Antitumor potency, MTT method, U87; format: cell-based; conditions: Homo sapiens, U-87 MG, 72 h incubation
Description: as §1, §2

[5] = test system: H460; experiment: Antitumor potency, MTT method, H460; format: cell-based; conditions: Homo sapiens, NCI-H460, 72 h incubation
Description: as §1, §2

[6] = test system: MM.1S; experiment: Antitumor potency, MTT method, MM.1S; format: cell-based; conditions: Homo sapiens, MM1.S, 72 h incubation
Description: as §1, §2

[7] = test system: rats with CIA; experiment: Analgesic and anti-inflammatory effects on collagen-induced rheumatoid arthritis (CIA) in rats; format: in vivo, Lewis rats; conditions: for paw volume effect as compared to the flurbiprofen group: left hind limb, 14-day intervention, 10 mg/kg (FIG. 3); for MWT effect as compared to the flurbiprofen group: left lower limb, 13-day intervention, 10 mg/kg (FIG. 4)
Description: Experimental method: Female Lewis rats, aged 6-8 weeks, were randomly grouped, with 8 rats in each group. Under the ambient temperature of 20.5° C. to 24.5° C. and the humidity of 40% to 70%, the light period was 12-h bright and 12-h dark. Type II collagen was mixed with Freund's incomplete adjuvant (IFA) at a ratio of 1:1 and fully emulsified on ice before use. 100 μL of the mixed solution was injected intradermally at the part 2 to 3 cm from the base of the rat tail, and 50 μL of the mixed solution was injected into the bases of both hind limbs separately. The rats in the blank control group were injected with an equal volume of saline. IFA was used for re-immunization 7 days later. […] Rats with a total score of more than 2 on both hind limbs were selected and randomly divided into a model group, a flurbiprofen group, a compound 33 group, a compound 2 group, a compound 13 group, a compound 20 group, and a compound 35 group according to the body weight, score and paw volume, and furthermore a blank control group was set up, with 8 rats in each group. The dosing […] was […], and the dosing time was 14 days. A corresponding volume of solvent was administered in the model group and the blank control group.
Test indicators: body weight, arthritis score, hind limb paw volume, and mechanical foot threshold (MWT).
Standard for arthritis score: 0=normal; 1=erythema and slight swelling observed at the ankle joint; 2=erythema and slight swelling observed from the ankle joint to the metatarsal joint or the metacarpal joint; 3=erythema and moderate swelling observed from the ankle joint to the metatarsophalangeal joint or the metacarpal joint; 4=erythema and severe swelling observed from the ankle joint to the metatarsal joint; the total score of all (four) paws was calculated, and the sum of the arthritis indices was up to 16 per rat.

[8] = test system: Eca-109; experiment: Antitumor potency, MTT method, Eca-109; format: cell-based; conditions: Homo sapiens, 72 h incubation
Description: as §1, §2

[9] = test system: U251; experiment: Antitumor potency, MTT method, U251; format: cell-based; conditions: Homo sapiens, U-251, 72 h incubation
Description: as §1, §2

[10] = test system: Dry Yeast-Induced Rat Fever Models; experiment: Antipyretic effect on dry yeast-induced fever in rats; format: in vivo, SD rats; conditions: rectal temperature, 10 mg/kg intraperitoneal, 20 min before 20% dry yeast s.c.
Description: Experimental method: Male SD rats, aged 4 weeks, were randomly grouped, with 10 rats in each group. […] The rats were intraperitoneally injected with saline, the compounds of the present disclosure or the control drug flurbiprofen respectively, all of which were administered at a dose of 10 mg/kg and a dosing volume of 10 μL/g. At 20 min after administration, 20% active dry yeast suspension was injected subcutaneously. After modeling, the rectal temperatures were measured at 4 h and 8 h.

[11] = 6 h, read-out: Toe Swelling Inhibition Rate at 6 h
[12] = 24 h, read-out: Toe Swelling Inhibition Rate at 24 h

Row | IC50 [1] [µM] | AUC [3] [ng·h/mL] | Cmax [3] [ng/mL] | half-life [3] [h] | IC50 [4] [µM] | IC50 [5] [µM] | IC50 [6] [µM] | IC50 [8] [µM] | IC50 [9] [µM] | Structure (SMILES) | inhibition in vivo at 10 mg/kg [2, 11] [%] | inhibition in vivo at 10 mg/kg [2, 12] [%] | paw volume effect as compared to the flurbiprofen group [7] | MWT effect as compared to the flurbiprofen group [7] | Temp. at 4 h After Dosing [10] [°C] | Temp. at 8 h After Dosing [10] [°C]
1 | 60 | 183 ± 85.9 | 27.1 ± 7.2 | 14 ± 9.88 | > 100 | 90 | 41.7 | 55.7 | > 100 | CC(C(=O)OCOC(=O)N1CCOCC1)c1ccc(-c2ccccc2)c(F)c1 (stereo not drawn) [Compound 2] | 42.9 | 34.1 | better effects | slightly better or better effects | 37.10 ± 0.17 | 37.32 ± 0.27
2 | > 100 | 8.75 ± 1.53 | 1.56 ± 0.509 | 9.08 ± 1.44 | > 100 | > 100 | > 100 | > 100 | > 100 | Cc1cc(CO)c(O)c(COC(=O)C(C)c2ccc(-c3ccccc3)c(F)c2)c1 (stereo not drawn) [Compound 33] | 55.5 | 35.8 | better effects | slightly better or better effects | 37.18 ± 0.18 | 37.27 ± 0.28
3 | 41.8 | – | – | – | 60.3 | 32.6 | 45.7 | 29.6 | 7.33 | CC(C(=O)OCOC(=O)c1ccc(O)cc1)c1ccc(-c2ccccc2)c(F)c1 (stereo not drawn) [Compound 35] | 54.6 | 49.8 | better effects | slightly better or better effects | 37.15 ± 0.21 | 37.29 ± 0.30
